Tests used:
Assay in all cases: SelectScreen LanthaScreen Binding
Settings in all cases: 1000 nM
DDR2 = biological target: T1, DDR2 (Homo sapiens, UniProt Q16832)
T1 sequence (Q16832 22-855): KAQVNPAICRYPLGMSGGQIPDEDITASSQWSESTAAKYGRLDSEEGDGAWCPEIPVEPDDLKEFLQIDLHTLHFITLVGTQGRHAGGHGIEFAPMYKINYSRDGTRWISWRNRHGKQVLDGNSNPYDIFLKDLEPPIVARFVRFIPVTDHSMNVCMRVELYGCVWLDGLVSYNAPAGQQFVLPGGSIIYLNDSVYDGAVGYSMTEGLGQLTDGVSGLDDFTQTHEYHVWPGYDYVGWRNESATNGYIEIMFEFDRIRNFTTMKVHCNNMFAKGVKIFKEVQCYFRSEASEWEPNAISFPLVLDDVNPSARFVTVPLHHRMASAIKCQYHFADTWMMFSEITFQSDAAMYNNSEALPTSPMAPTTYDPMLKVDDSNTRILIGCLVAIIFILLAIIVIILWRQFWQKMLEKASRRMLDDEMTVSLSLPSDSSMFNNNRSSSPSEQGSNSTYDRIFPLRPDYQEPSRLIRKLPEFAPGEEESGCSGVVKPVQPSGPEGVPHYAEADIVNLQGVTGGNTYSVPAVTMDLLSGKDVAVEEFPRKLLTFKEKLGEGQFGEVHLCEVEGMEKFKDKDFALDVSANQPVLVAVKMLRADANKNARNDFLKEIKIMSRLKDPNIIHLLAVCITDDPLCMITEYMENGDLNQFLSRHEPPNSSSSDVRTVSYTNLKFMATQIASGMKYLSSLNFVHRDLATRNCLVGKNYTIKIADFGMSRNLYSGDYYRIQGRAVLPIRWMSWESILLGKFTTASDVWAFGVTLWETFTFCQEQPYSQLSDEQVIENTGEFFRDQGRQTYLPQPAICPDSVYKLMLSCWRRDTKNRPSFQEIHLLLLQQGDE
Procedure: (§1) 133 protein kinases and 7 lipid kinases were counterscreened, with 1938 used at 1 μM, using the Adapta, Lantha and Z-LYTE assays (SelectScreen Kinase Profiling Service; Thermofisher – experimental details of these assays can be found here: https://www.thermofisher.com/uk/en/home/industrial/pharma-biopharma/drug-discovery-development/target-and-lead-identification-and-validation/kinasebiology/kinase-activity-assays.html. The tree represention in KinMap[59] generated courtesy of Cell Signaling Technology, Inc. (www.cellsignal.com). mTORC1 (mTOR/RAPTOR/LST8) protein complex and ATM kinase and substrates were produced as previously described[57],[60]. Screening of 1938 was conducted using SuperSep Phos-Tag 50 μmol/l 100 x 100 x 6.6 mm 17-well (192-18001/199-18011) gels. For ATM assays, 100 nM ATM was incubated for 30 min at 30°C with 5 μM GST-p53 and 1 mM ATP, in the absence or presence of 200 μM 1938 in ATM Kinase Buffer (50 mM HEPES pH 7.5, 100 mM NaCl, 10% glycerol, 2 mM […], 5 mM MgCl2). As a positive control for ATM activation, the same reaction was carried out with 100 nM ATM/5 μM GST-p53/1 mM ATP in the presence of 100 nM Mre11-Rad50-Nbs1 (MRN) complex, a known activator of ATM[61]. For mTORC1 assays, 50 nM mTORC1 complex (mTOR/LST8/RAPTOR) was incubated for 3 h at 30°C with 15 μM 4E-BP1, 10 mM MgCl2 and 250 μM ATP, in the absence or presence of 200 μM 1938. As a ‘positive’ control, a higher concentration (150 nM) of mTORC1 complex (mTOR/LST8/RAPTOR) was incubated for 3 h at 30°C with 15 μM 4E-BP1, 10 mM MgCl2 and 250 μM ATP. Kinase reactions were quenched by addition of SDS-PAGE Loading Buffer (as per manufacturer’s instructions) and freezing at -20°C before being run on the Phos-tag gels at 150 V for 90 min. Gels were then stained using InstantBlue™ Coomassie, and quantified using BioRad Image Lab Software. Kinase assays were carried out in triplicate.

MAP4K1 (HPK1) = MAP4K1 (HPK1) (Homo sapiens, UniProt Q92918)
Procedure: as §1

MAP4K3 (GLK) = biological target: T2, MAP4K3 (GLK) (Homo sapiens, UniProt Q8IVH8)
T2 sequence (Q8IVH8 1-894): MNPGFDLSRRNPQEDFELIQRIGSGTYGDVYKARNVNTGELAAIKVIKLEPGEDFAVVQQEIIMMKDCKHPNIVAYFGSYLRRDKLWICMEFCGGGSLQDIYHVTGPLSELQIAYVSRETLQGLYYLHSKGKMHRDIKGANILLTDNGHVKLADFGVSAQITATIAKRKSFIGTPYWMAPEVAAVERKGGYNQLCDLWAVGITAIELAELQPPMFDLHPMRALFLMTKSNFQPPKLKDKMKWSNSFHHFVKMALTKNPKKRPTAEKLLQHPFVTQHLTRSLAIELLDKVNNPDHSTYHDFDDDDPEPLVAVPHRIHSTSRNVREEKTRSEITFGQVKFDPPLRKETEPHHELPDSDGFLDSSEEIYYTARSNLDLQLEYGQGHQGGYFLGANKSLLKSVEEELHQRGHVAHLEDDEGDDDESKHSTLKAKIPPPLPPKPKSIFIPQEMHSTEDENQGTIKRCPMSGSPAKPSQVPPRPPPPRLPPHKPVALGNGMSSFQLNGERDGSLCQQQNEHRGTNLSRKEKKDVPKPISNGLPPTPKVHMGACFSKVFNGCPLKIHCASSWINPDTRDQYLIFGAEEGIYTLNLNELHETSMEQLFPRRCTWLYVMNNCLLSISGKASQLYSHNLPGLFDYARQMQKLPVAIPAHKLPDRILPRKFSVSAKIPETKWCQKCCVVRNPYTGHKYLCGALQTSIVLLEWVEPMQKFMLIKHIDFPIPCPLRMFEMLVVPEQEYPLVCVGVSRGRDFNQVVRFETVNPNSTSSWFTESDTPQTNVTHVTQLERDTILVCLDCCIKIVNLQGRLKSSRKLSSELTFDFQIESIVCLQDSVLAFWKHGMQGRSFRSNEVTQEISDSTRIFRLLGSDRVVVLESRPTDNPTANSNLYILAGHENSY
Procedure: as §1

MKNK2 (MNK2) = MKNK2 (MNK2) (Homo sapiens, UniProt Q9HBH9)
Procedure: as §1

TNIK = TNIK (Homo sapiens, UniProt Q9UKE5)
Procedure: as §1

Sequence of MAP4K1 (HPK1) (Q92918 whole entry): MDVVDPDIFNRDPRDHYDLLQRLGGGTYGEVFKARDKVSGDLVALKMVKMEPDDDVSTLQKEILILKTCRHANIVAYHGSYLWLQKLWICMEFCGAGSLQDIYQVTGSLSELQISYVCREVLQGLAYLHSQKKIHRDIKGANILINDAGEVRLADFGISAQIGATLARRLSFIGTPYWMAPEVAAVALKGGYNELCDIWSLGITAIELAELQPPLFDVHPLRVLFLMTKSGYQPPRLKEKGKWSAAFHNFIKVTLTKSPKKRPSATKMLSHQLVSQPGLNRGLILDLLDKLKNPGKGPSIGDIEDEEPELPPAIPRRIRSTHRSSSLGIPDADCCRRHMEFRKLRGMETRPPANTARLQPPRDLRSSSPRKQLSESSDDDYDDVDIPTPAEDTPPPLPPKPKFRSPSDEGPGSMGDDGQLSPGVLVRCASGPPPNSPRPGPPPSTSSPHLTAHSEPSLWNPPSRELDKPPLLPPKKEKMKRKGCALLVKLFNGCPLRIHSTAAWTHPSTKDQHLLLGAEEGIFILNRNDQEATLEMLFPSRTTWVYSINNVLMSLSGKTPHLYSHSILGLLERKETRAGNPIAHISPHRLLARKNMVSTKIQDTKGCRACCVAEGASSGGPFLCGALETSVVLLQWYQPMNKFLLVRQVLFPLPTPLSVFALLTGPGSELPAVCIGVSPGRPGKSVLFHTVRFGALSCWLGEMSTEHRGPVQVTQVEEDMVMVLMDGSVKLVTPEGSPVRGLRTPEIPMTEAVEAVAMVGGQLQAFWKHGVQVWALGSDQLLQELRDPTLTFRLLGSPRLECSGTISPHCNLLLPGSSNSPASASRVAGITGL
Sequence of TNIK (Q9UKE5 whole entry): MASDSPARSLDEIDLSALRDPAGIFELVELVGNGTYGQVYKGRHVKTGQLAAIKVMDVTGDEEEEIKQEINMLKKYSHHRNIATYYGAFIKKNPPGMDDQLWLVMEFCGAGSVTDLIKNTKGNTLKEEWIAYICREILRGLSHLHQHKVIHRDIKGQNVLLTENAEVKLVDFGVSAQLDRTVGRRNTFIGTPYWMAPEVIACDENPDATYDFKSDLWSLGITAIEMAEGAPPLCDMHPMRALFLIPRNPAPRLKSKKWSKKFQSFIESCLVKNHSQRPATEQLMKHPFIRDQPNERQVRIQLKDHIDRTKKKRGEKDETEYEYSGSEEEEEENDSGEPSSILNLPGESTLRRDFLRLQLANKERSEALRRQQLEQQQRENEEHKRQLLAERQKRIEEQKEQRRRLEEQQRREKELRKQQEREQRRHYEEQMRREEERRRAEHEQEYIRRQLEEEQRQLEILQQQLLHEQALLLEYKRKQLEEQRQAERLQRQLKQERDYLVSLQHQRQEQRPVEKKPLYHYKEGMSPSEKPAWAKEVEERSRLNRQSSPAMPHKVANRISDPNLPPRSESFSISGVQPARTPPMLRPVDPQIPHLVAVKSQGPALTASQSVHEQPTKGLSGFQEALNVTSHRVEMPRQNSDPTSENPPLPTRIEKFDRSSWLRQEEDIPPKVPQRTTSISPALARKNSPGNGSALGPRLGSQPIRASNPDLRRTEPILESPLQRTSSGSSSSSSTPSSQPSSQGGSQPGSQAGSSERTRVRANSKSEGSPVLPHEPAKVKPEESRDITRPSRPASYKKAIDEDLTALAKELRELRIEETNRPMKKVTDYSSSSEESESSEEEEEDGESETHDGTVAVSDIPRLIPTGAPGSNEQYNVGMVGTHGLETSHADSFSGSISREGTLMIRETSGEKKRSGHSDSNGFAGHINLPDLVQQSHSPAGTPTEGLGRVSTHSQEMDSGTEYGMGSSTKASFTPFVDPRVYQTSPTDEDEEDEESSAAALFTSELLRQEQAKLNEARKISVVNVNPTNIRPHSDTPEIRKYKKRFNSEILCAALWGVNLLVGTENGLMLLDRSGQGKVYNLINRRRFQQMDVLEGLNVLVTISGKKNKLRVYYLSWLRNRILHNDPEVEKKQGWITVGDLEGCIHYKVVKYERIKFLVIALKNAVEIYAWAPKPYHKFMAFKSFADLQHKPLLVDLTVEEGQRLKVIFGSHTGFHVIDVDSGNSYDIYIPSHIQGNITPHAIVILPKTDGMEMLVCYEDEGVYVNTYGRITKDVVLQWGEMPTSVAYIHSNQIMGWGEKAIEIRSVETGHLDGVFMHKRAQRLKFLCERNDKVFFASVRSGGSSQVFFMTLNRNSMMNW
Sequence of MKNK2 (MNK2) (Q9HBH9 whole entry): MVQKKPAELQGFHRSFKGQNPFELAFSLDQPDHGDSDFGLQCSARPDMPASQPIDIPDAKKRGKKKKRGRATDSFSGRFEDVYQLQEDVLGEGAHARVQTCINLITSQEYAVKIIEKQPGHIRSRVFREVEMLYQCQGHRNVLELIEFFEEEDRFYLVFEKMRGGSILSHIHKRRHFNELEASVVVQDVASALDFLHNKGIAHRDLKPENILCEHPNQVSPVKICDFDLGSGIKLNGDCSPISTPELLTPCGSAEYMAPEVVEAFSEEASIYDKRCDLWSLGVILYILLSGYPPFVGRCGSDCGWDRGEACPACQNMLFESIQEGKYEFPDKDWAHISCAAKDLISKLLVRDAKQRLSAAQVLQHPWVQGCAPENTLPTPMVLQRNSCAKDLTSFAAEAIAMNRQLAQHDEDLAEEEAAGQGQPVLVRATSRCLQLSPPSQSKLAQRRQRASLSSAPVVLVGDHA

In the case of `CCN1CCN(c2ccc(Nc3cc(Nc4cccc5c4N(C(C)=O)CC5)ccn3)cc2)CC1` [Compound 1938], the “% Displacement Point 1” value (DDR2) is reported as -6.46%, the “% Displacement Point 2” value (DDR2) is reported as 0.345% and the “% Displacement mean” value (DDR2) is reported as -3%. The “% Displacement Point 1” value (MAP4K1 (HPK1)) was -3.25%, the “% Displacement Point 2” value (MAP4K1 (HPK1)) was 6.64% and the “% Displacement mean” value (MAP4K1 (HPK1)) was 1.7%. The “% Displacement Point 1” value (MAP4K3 (GLK)) was -1.29%, the “% Displacement Point 2” value (MAP4K3 (GLK)) was 0.495% and the “% Displacement mean” value (MAP4K3 (GLK)) was -0.396%. For the same compound, the “% Displacement Point 1” value (MKNK2 (MNK2)) was 20%, the “% Displacement Point 2” value (MKNK2 (MNK2)) was 17% and the “% Displacement mean” value (MKNK2 (MNK2)) was 18%. For the same compound, the “% Displacement Point 1” value (TNIK) was 23%, the “% Displacement Point 2” value (TNIK) was 25% and the “% Displacement mean” value (TNIK) was 24%.
